The kinase profiling compilation of Christmann-Franck et al. (2016)
Where “and” joins values, the source holds several entries; their conditions need not be identical. Equal values may be shown once.

Experiments:
Assay in all cases: radiometric filter-binding kinase assay, Kinaseprofiler
FGFR3 (human) = FGFR3 (human) (UniProt P22607); settings: ATP 15 µM
SRPK3 (human) = SRPK3 (human) (UniProt Q9UPE1); settings: ATP 15 µM
MELK (human) = MELK (human) (UniProt Q14680); settings: ATP 45 µM
PRKCZ (human) = PRKCZ (human) (UniProt Q05513); settings: ATP 15 µM
PLK1 (human) = PLK1 (human) (UniProt P53350); settings: ATP 70 µM
CDK1 CCNB1 (human) = CDK1 CCNB1 (human) (UniProt P06493+P14635); settings: ATP 45 µM
STK11 (human) = STK11 (human) (UniProt Q15831); settings: ATP 155 µM
CSNK1G2 (human) = CSNK1G2 (human) (UniProt P78368); settings: ATP 10 µM
SYK (human) = SYK (human) (UniProt P43405); settings: ATP 15 µM
CAMK2G (human) = CAMK2G (human) (UniProt Q13555); settings: ATP 10 µM
PIM1 (human) = PIM1 (human) (UniProt P11309); settings: ATP 90 µM
FLT3 (human) = FLT3 (human) (UniProt P36888); settings: ATP 200 µM
FGFR2 (human) = FGFR2 (human) (UniProt P21802); settings: ATP 90 µM
BMX (human) = BMX (human) (UniProt P51813); settings: ATP 45 µM
CSNK2A2 (human) = CSNK2A2 (human) (UniProt P19784); settings: ATP 10 µM
STK17A (human) = STK17A (human) (UniProt Q9UEE5); settings: ATP 10 µM
MYLK (human) = MYLK (human) (UniProt Q15746); settings: ATP 70 µM
FGFR4 (human) = FGFR4 (human) (UniProt P22455); settings: ATP 155 µM
CLK2 (human) = CLK2 (human) (UniProt P49760); settings: ATP 15 µM
PAK6 (human) = PAK6 (human) (UniProt Q9NQU5); settings: ATP 10 µM
TBK1 (human) = TBK1 (human) (UniProt Q9UHD2); settings: ATP 155 µM
LCK (human) = LCK (human) (UniProt P06239); settings: ATP 90 µM
EPHA4 (human) = EPHA4 (human) (UniProt P54764); settings: ATP 15 µM
MST1R (human) = MST1R (human) (UniProt Q04912); settings: ATP 70 µM
[1] = test system: EEF2K (human), O00418 [H23R]; settings: ATP 15 µM
PRKCE (human) = PRKCE (human) (UniProt Q02156); settings: ATP 45 µM
ULK2 (human) = ULK2 (human) (UniProt Q8IYT8); settings: ATP 15 µM
INSR (human) = INSR (human) (UniProt P06213)
MAPK12 (human) = MAPK12 (human) (UniProt P53778); settings: ATP 15 µM
TNK2 (human) = TNK2 (human) (UniProt Q07912); settings: ATP 70 µM
PRKCA (human) = PRKCA (human) (UniProt P17252); settings: ATP 45 µM
RET (human) = RET (human) (UniProt P07949); settings: ATP 70 µM
MAPK3 (human) = MAPK3 (human) (UniProt P27361); settings: ATP 70 µM

Sequence of LCK (human) (P06239 whole entry, looked up): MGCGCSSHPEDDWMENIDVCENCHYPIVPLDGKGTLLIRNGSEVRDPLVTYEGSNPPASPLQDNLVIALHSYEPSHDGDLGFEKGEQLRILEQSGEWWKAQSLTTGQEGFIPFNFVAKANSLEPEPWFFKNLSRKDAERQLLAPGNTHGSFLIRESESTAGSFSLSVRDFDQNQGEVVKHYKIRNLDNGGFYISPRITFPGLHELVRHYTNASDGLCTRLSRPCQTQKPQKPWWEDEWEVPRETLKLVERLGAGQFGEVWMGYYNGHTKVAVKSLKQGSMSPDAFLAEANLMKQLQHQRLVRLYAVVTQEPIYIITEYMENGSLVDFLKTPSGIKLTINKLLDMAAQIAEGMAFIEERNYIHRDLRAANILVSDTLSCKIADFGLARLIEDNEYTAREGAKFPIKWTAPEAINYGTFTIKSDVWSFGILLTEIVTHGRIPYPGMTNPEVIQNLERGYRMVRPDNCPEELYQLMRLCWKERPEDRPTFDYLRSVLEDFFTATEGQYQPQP
Sequence of INSR (human) (P06213 whole entry, looked up): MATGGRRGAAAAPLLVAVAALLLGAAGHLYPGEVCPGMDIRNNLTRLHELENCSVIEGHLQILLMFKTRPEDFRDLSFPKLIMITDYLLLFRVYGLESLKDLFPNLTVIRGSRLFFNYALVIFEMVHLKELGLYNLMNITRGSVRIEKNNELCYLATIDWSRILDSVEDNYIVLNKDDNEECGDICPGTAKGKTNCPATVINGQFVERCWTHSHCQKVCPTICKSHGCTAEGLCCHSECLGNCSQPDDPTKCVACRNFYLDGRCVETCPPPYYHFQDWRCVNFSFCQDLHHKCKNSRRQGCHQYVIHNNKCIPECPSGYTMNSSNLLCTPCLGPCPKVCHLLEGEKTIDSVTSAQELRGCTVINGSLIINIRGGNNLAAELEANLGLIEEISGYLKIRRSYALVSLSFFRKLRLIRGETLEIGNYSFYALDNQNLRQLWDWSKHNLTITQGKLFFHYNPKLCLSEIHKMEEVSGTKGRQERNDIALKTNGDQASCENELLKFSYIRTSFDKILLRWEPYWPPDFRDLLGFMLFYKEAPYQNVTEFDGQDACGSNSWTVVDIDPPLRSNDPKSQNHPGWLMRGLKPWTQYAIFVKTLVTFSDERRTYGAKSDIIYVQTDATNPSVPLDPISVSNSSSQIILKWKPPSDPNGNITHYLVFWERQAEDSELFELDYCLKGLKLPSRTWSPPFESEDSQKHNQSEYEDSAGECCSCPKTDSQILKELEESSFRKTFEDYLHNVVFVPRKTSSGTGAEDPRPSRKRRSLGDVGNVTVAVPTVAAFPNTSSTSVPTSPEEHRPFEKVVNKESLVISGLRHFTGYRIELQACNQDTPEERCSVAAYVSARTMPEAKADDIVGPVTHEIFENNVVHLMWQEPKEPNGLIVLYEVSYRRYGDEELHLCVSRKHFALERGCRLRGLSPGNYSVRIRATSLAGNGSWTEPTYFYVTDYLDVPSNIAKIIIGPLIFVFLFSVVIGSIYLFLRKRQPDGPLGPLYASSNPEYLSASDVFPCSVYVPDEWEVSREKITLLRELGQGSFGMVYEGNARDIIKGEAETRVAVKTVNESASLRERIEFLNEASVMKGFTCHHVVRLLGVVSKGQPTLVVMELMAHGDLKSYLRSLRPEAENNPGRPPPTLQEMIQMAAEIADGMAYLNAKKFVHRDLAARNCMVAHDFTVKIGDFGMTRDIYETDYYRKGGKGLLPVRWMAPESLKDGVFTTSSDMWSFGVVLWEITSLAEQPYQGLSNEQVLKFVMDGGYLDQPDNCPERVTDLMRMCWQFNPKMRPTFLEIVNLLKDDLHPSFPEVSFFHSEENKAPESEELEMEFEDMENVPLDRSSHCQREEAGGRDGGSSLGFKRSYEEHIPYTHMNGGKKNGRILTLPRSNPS
Sequence of ULK2 (human) (Q8IYT8 whole entry, looked up): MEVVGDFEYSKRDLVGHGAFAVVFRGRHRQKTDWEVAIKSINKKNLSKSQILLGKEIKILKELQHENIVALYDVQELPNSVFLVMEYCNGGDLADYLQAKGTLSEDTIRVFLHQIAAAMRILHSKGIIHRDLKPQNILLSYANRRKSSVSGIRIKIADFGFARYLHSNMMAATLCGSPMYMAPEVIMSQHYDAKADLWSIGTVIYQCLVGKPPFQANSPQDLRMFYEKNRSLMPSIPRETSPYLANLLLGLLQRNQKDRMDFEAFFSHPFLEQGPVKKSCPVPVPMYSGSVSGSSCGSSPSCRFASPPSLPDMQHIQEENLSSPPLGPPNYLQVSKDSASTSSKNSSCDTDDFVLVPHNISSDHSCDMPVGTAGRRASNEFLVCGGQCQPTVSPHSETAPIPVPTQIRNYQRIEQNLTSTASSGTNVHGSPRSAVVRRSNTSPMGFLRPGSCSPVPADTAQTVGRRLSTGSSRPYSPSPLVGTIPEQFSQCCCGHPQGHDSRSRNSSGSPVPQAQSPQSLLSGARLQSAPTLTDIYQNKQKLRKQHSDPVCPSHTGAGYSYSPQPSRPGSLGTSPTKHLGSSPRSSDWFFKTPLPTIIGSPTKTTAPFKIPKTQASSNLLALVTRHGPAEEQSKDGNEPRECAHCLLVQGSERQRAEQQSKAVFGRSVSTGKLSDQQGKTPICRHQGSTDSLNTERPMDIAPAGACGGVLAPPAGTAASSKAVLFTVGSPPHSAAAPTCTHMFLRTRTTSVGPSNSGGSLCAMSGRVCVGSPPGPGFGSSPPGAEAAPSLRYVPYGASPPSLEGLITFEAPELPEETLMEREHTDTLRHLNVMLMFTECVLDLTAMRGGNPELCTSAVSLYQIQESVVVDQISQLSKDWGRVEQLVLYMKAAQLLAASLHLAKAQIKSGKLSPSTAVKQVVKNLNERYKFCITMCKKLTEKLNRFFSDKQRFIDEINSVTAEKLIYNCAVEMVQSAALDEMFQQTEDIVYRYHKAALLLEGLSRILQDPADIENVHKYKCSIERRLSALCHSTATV
Sequence of STK17A (human) (Q9UEE5 whole entry, looked up): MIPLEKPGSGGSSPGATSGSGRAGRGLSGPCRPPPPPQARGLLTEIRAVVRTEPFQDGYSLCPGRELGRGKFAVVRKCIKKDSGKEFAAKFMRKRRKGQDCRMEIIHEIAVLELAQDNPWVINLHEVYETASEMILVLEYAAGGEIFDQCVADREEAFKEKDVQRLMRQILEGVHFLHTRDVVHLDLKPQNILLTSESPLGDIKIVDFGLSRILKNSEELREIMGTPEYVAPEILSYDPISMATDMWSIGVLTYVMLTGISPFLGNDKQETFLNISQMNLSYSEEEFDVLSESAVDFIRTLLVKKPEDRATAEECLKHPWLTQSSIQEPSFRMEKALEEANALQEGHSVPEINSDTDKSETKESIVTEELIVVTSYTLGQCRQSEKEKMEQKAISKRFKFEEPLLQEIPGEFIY
Sequence of CSNK2A2 (human) (P19784 whole entry, looked up): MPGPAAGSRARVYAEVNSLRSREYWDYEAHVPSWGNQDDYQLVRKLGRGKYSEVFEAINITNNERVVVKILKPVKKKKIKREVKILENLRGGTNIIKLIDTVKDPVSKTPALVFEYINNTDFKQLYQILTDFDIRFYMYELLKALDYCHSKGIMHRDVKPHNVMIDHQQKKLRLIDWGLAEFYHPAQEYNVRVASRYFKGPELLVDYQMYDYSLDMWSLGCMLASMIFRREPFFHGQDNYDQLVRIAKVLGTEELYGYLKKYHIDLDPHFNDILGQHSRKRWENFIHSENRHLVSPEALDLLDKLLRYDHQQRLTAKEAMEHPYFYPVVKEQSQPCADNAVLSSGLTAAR
Sequence of EPHA4 (human) (P54764 whole entry, looked up): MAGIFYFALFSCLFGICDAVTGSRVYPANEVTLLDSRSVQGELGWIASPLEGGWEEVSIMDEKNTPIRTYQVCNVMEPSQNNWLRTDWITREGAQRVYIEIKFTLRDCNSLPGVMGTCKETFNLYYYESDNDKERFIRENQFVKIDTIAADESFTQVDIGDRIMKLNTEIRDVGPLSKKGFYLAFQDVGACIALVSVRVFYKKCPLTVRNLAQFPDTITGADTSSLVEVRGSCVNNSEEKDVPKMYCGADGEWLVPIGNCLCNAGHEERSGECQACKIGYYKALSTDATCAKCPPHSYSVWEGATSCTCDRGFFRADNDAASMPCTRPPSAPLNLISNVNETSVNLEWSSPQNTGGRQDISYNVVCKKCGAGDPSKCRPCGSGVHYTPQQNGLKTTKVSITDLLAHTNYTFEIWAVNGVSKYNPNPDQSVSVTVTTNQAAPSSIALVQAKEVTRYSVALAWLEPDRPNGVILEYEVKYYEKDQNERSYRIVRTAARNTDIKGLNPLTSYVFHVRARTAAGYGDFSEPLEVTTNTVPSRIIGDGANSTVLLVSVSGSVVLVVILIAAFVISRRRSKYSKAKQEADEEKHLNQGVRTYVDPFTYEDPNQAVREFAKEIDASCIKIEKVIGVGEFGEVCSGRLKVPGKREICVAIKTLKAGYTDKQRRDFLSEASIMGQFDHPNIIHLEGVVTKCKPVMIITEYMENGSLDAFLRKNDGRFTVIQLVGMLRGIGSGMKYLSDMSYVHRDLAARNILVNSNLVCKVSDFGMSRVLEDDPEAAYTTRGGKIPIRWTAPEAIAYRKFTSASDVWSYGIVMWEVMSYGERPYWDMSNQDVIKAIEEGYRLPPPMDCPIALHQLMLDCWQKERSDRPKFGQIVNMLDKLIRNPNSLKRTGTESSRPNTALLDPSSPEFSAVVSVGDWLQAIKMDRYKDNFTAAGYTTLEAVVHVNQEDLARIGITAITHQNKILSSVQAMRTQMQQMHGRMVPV
Sequence of PIM1 (human) (P11309 whole entry, looked up): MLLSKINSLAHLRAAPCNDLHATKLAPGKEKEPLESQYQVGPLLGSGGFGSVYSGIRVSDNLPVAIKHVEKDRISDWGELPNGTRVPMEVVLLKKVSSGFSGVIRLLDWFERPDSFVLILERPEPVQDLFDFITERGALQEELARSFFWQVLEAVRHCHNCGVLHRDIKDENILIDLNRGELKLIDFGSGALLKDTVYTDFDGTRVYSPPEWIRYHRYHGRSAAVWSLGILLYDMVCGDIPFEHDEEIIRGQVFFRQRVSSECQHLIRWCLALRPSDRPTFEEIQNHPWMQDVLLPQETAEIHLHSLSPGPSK

- residual activity (FGFR3 (human); compound 1.0 µM): 20%
- residual activity (FGFR3 (human); compound 10.0 µM): 2%
- residual activity (SRPK3 (human); compound 1.0 µM): 85%
- residual activity (SRPK3 (human); compound 10.0 µM): 46%
- residual activity (MELK (human); compound 1.0 µM): 15%
- residual activity (MELK (human); compound 10.0 µM): 7%
- residual activity (PRKCZ (human); compound 1.0 µM): 101%
- residual activity (PRKCZ (human); compound 10.0 µM): 98%
- residual activity (PLK1 (human); compound 1.0 µM): 83%
- residual activity (PLK1 (human); compound 10.0 µM): 103%
- residual activity (CDK1 CCNB1 (human); compound 1.0 µM): 35%
- residual activity (CDK1 CCNB1 (human); compound 10.0 µM): 19%
- residual activity (STK11 (human); compound 1.0 µM): 83%
- residual activity (STK11 (human); compound 10.0 µM): 44%
- residual activity (CSNK1G2 (human); compound 1.0 µM): 64%
- residual activity (CSNK1G2 (human); compound 10.0 µM): 20%
- residual activity (SYK (human); compound 1.0 µM): 49%
- residual activity (SYK (human); compound 10.0 µM): 60%
- residual activity (CAMK2G (human); compound 1.0 µM): 12%
- residual activity (CAMK2G (human); compound 10.0 µM): 1%
- residual activity (PIM1 (human); compound 1.0 µM): 76%
- residual activity (PIM1 (human); compound 10.0 µM): 47%
- residual activity (FLT3 (human); compound 1.0 µM): 1%
- residual activity (FLT3 (human); compound 10.0 µM): 0%
- residual activity (FGFR2 (human); compound 1.0 µM): 22%
- residual activity (FGFR2 (human); compound 10.0 µM): 2%
- residual activity (BMX (human); compound 1.0 µM): 21%
- residual activity (BMX (human); compound 10.0 µM): 4%
- residual activity (CSNK2A2 (human); compound 1.0 µM): 102%
- residual activity (CSNK2A2 (human); compound 10.0 µM): 58%
- residual activity (STK17A (human); compound 1.0 µM): 6%
- residual activity (STK17A (human); compound 10.0 µM): 4%
- residual activity (MYLK (human); compound 1.0 µM): 46%
- residual activity (MYLK (human); compound 10.0 µM): 13%
- residual activity (FGFR4 (human); compound 1.0 µM): 100%
- residual activity (FGFR4 (human); compound 10.0 µM): 45%
- residual activity (CLK2 (human); compound 1.0 µM): 14%
- residual activity (CLK2 (human); compound 10.0 µM): 4%
- residual activity (PAK6 (human); compound 1.0 µM): 63%
- residual activity (PAK6 (human); compound 10.0 µM): 37%
- residual activity (TBK1 (human); compound 1.0 µM): 9%
- residual activity (TBK1 (human); compound 10.0 µM): 1%
- residual activity (LCK (human); compound 1.0 µM): 13% and 22%
- residual activity (LCK (human); compound 10.0 µM): 6% and 17%
- residual activity (EPHA4 (human); compound 1.0 µM): 96%
- residual activity (EPHA4 (human); compound 10.0 µM): 83%
- residual activity (MST1R (human); compound 1.0 µM): 86%
- residual activity (MST1R (human); compound 10.0 µM): 71%
- residual activity ([1]; compound 1.0 µM): 109%
- residual activity ([1]; compound 10.0 µM): 93%
- residual activity (PRKCE (human); compound 1.0 µM): 106%
- residual activity (PRKCE (human); compound 10.0 µM): 91%
- residual activity (ULK2 (human); compound 1.0 µM): 93%
- residual activity (ULK2 (human); compound 10.0 µM): 59%
- residual activity (INSR (human); compound 1.0 µM, ATP 45 µM): 35%
- residual activity (INSR (human); compound 1.0 µM, ATP 200 µM): 17%
- residual activity (INSR (human); compound 10.0 µM, ATP 45 µM): 19%
- residual activity (INSR (human); compound 10.0 µM, ATP 200 µM): 10%
- residual activity (MAPK12 (human); compound 1.0 µM): 95%
- residual activity (MAPK12 (human); compound 10.0 µM): 84%
- residual activity (TNK2 (human); compound 1.0 µM): 34%
- residual activity (TNK2 (human); compound 10.0 µM): 4%
- residual activity (PRKCA (human); compound 1.0 µM): 93%
- residual activity (PRKCA (human); compound 10.0 µM): 86%
- residual activity (RET (human); compound 1.0 µM): 1%
- residual activity (RET (human); compound 10.0 µM): 0%
- residual activity (MAPK3 (human); compound 1.0 µM): 114%
- residual activity (MAPK3 (human); compound 10.0 µM): 101%
SMILES: O=C1Nc2ccccc2/C1=C1\Nc2ccccc2\C1=N/O
